Like-named read-outs stand apart in the source and are kept apart here. Values belong to the compound of their own block, whether it stands above or below them.
Assays:
[1] = tested on: C9orf72 intron 1 harboring r(G4C2)exp; assay: C9orf72 intron 1 RT-qPCR in patient-derived LCLs; assay type: cell-based, human; conditions: increasing concentrations
Procedure: Measuring Levels of C9orf72 and C9orf72 Variants by RT-qPCR. LCLs were seeded in 6-well plate (˜10^6 cells in 2 mL of growth medium) and incubated overnight at 37° C. Cells were then treated with various concentrations of compound for 24 h or with G4C2-ASO and Control-ASO (100 nM), delivered by transfection with Lipofectamine RNAiMax. RNA was extracted as described above and the expression of C9orf72 variants was determined by RT-qPCR. […] For compound treatment well, medium change was performed with fresh compound every 3-4 days. RNA was extracted as described above and the expression of C9orf72 variants was determined by RT-qPCR.

r(G4C2)8 [2] = assay: Biolayer interferometry (BLI) binding; conditions: for Kd: BLI
Procedure: (§1) Biolayer Interferometry (BLI). BLI studies were performed similarly as previously described (12) using an Octet RED96. Briefly, 5′-biotinylated nucleic acids were folded by heating at 95° C. for 4 min in 10 mM sodium phosphate buffer, pH 7, followed by slowly cooling to room temperature. Then, to the folded RNA were added the following components: 1.386 mL 1×DPBS (21-031-CV, Corning), 180 μL freshly prepared 1% (w/v) BSA, 36 μL 1% (v/v) Tween-20, and 18 μL DMSO (1% final concentration) in a final volume of 1.8 mL. The final concentration of RNA was 0.5 μM. Separately, serial dilutions of the compound of interest were prepared in the same buffer.
(§2) The resulting curves were analyzed and processed using Octet Data Analysis software version 9.1 by subtracting the response of the sensors recorded upon incubation with solutions containing compound and no RNA (parallel reference). The data were then fitted assuming reversible binding using the entire time interval for association and dissociation using either 1:1 or the 2:1 heterogeneous binding curve fitting model. The reported Kd,n, kon,n and koff,n values represent the average of two independent experiments.

[3] = target: r(G4C2)8 and hnRNP H1 complex; assay: TR-FRET hnRNP H binding assay; assay type: biochemical; conditions: for IC50: inhibiting r(G4C2)8 and hnRNP H1 complex formation, 7 in the absence of Rnase L
Procedure: TR-FRET hnRNP H Binding Assay. TR-FRET assays were performed as previously described (12). The mixture was incubated for 15 min at room temperature and then hnRNP H1-His6 was added. After an additional 15 min incubation, streptavidin-XL665 (HTRF, Cisbio Bioassays) and anti-His6-Tb (HTRF, Cisbio Bioassays) were added to a final concentration of 40 nM and 0.44 ng/μL, respectively. After incubating for 1 h, TR-FRET was measured as previously described (12).

r(G2C2)10 = assay: Biolayer interferometry (BLI) binding; conditions: BLI; read-out: Kd, 1
Procedure: as §1
as §2, with “Streptavidin sensors (SA, #18-5019, ForteBio) were equilibrated with buffer for 10 min at room temperature using 96-well black microplate (Greiner; Catalog #: 655209). The following time intervals were used during data acquisition (30° C. with shaking at 1000 rpm): baseline step, 180 s; loading of RNA, 900 s; washing, 180 s; association of compound, 1800 s; and dissociation of compound, 1800 s. The resulting” for “The resulting”

d(G4C2)8 = assay: Biolayer interferometry (BLI) binding; conditions: BLI
Procedure: as §1
as §2, with “Streptavidin sensors (SA, #18-5019, ForteBio) were equilibrated with buffer for 10 min at room temperature using 96-well black microplate (Greiner; Catalog #: 655209). The following time intervals were used during data acquisition (30° C. with shaking at 1000 rpm): baseline step, 180 s; loading of RNA, 900 s; washing, 180 s; association of compound, 1800 s; and dissociation of compound, 1800 s. The resulting” for “The resulting”

r(G2C4)8 = assay: Biolayer interferometry (BLI) binding; conditions: BLI
Procedure: as §1
as §2, with “Streptavidin sensors (SA, #18-5019, ForteBio) were equilibrated with buffer for 10 min at room temperature using 96-well black microplate (Greiner; Catalog #: 655209). The following time intervals were used during data acquisition (30° C. with shaking at 1000 rpm): baseline step, 180 s; loading of RNA, 900 s; washing, 180 s; association of compound, 1800 s; and dissociation of compound, 1800 s. The resulting” for “The resulting”

r(G4C2)8 [4] = assay: In vitro Chem-CLIP and C-Chem-CLIP; assay type: binding
Procedure: In vitro Chemical Cross-linking and Isolation by Pull-Down (Chem-CLIP) and Competitive Chemical Cross-linking and Isolation by Pull-Down (C-Chem-CLIP): Approximately 10,000 counts of ^32P 5′-end labeled r(G4C2)8 was folded in 1×Folding Buffer at 95° C. for 1 min. After cooling to room temperature, the Chem-CLIP probe at the desired concentrations (5, 10, 100, 500, 1000, 5000, 10000 nM) was added, and the samples were incubated at 37° C. for 18 h. For C-Chem-CLIP studies, the parent compound (10, 100, 500, 1000, 5000, 10000 nM) was incubated with RNA for 1 h before addition of the Chem-CLIP probe (500 nM).
Cross-linked RNAs were clicked to biotin […] azide (10 μL of a 5 mM stock solution in DMSO) by incubating in a solution containing 25 mM HEPES (pH 7.1), 250 mM sodium ascorbate, 10 mM CuSO4, and 50 mM THPTA (tris-hydroxypropyltriazolylmethylamine) for 6 h at 37° C. A 300 μL of streptavidin-agarose beads (Sigma-Aldrich) was washed three times and then resuspended in 1×PBS. An aliquot (20 μL) of the slurry was added to each sample, which was incubated for 1 h at room temperature. The samples were centrifuged and the supernatant containing unbound RNA was transferred to an unused tube. The beads were then washed three times with 1×PBS supplemented with 0.10% (v/v) Tween-20 and centrifuged, with each wash supernatant being added to the tube containing unbound RNA. The amounts of radioactivity in the supernatant and associated with the beads were quantified with a Beckman Coulter LS6500 Liquid Scintillation Counter.

[5] = tested on: quadruplex form of r(G4C2) repeats, r(G2C2)10, d(G4C2)8, d(G2C2)10; assay: In vitro Chem-CLIP, other nucleic acids; assay type: binding
C9orf72 mRNA variants [6] = assay: Cellular Chem-CLIP in patient-derived LCLs; assay type: cell-based, human; conditions: lymphoblastoid cells
Procedure: (§3) Cellular Chem-CLIP. For cellular Chem-CLIP studies, LCLs were grown in T-25 flasks while iPSCs were grown in 100 mm dishes. The cells were treated with Chem-CLIP probe (500 nM) overnight at 37° C. After removing the medium and washing with 1×PBS, fresh, ice-cold 1×PBS was added, and crosslinking was performed by UV irradiation at 365 nm for 10 min. The cells were collected, and total RNA was extracted with Qiagen micro RNEasy Kit per the manufacturer's protocol. Dynabeads MyOne Streptavidin C1 beads (Thermo Fisher Scientific 65001) were pre-loaded with biotin disulfide azide (Bioconjugate Technologies LLC dba Click Chemistry Tools) by incubating (10 μL of a 5 mM stock solution in DMSO in 500 μL PBS) with beads at room temperature for 30 min before magnetic capture. The beads were washed with High Salt Wash Buffer: (10 mM Tris-HCl pH 7.0, 1 mM EDTA, 4 M NaCl, 0.2% Tween-20) followed by two washes with Nanopure water. The click reaction between cross-linked RNAs and the Dynabeads displaying biotin disulfide azide was completed in a solution containing 25 mM HEPES, pH 7.1, 250 mM sodium ascorbate, 10 mM CuSO4, and 50 mM THPTA for 6 h at 37° C. […] The levels of C9orf72 mRNA in the purified, pull-down fraction were then measured by RT-qPCR as described above.

C9orf72 mRNA variants [7] = assay: Cellular Chem-CLIP in patient-derived iPSCs; assay type: cell-based, human
Procedure: as §3

- Kd (r(G4C2)8 [2]; exponent printed in row below, read-out: Kd, 1): 0.2 µM
- Kd (r(G4C2)8 [2]; read-out: Kd, 2): 10.6 µM
- IC50 [3]: 2.3 ± 0.3 µM
Compound: CC(=O)N(CCOCCOCCOc1ccc2[nH]c3c(C)c4ccncc4c(C)c3c2c1)CCOCCOCCOc1ccc2[nH]c3c(C)c4ccncc4c(C)c3c2c1 [Compound 6]
- C9orf72 intron 1 levels on co-treatment with constant concentration of 7 [1]: dose-dependently restored

- Kd (r(G4C2)8 [2]; read-out: Kd): 0.05 ± 0.008 µM
- Kd (r(G4C2)8 [2]; read-out: Kd, 2): 0.12 µM
- Kd (r(G2C2)10): 6 µM
- Kd (d(G4C2)8; read-out: Kd, 1): 1.3 µM
- Kd (d(G4C2)8; read-out: Kd, 2): 38 µM
- Kd (r(G2C4)8; read-out: Kd, 1): 32 µM
- Kd (r(G2C4)8; read-out: Kd, 2): 120 µM
- more potent than 1 ([3]; IC50 relative to 1): 10 fold
- IC50 [3]: ~1.8 µM
Compound: Cc1c2ccncc2c(C)c2c1[nH]c1ccc(OCCOCCOCCOCCOCCOCCOc3ccc4[nH]c5c(C)c6ccncc6c(C)c5c4c3)cc12 [Compound 2]

Compound: C#CCCC1(CCC(=O)NCCC)N=N1 [Compound 5]
- RNA pulled down (r(G4C2)8 [4]; all concentrations tested, up to 10 μM): < 25%

Compound: C#CCCC1(CCC(=O)N(CCOCCOCCOc2ccc3[nH]c4c(C)c5ccncc5c(C)c4c3c2)CCOCCOCCOc2ccc3[nH]c4c(C)c5ccncc5c(C)c4c3c2)N=N1 [Compound 4]
- pull-down of other nucleic acids more than 5 [5]: did not statistically significantly pull-down
- enrichment of variants with r(G4C2)exp (C9orf72 mRNA variants [6]; 500 nM probe): 1.9±0.4 fold
- enrichment of variants that do not contain the repeat expansion (C9orf72 mRNA variants [6]): no enrichment
- enrichment of variants that do not contain the repeat expansion (C9orf72 mRNA variants [7]): no enrichment
- enrichment of variants with r(G4C2)exp (C9orf72 mRNA variants [7]; 500 nM probe): 2.3±0.2 fold
- RNA pulled down (r(G4C2)8 [4]; 500 nM compound): ~40%

- Kd (r(G4C2)8 [2]; r(G4C2) repeats, read-out: Kd): 11 ± 0.14 µM
- avidity weaker than 1 (r(G4C2)8 [2]; Kd relative to 1): ~37 fold
Compound: C#CCn1c2ccc(OC)cc2c2c(C)c3cnccc3c(C)c21 [Compound 1b]
